Experimental data taken from patent publication US8481502B2, “Antibacterial aminoglycoside analogs” (Achaogen, Inc., priority 2009, dated 2013).
≈ marks a conversion by molar mass, not a printed value.

Legend:
[1] = test system: E. coli ATCC 25922 (AECO001); assay: MIC assay, CLSI broth microdilution, AECO001; assay type: cell-based; details: Escherichia coli; AECO001 is ATCC25922; Mueller Hinton Broth, 35 C, 20 hours
Protocol: (§1) Minimum inhibitory concentrations (MIC) were determined by reference Clinical and Laboratory Standards Institute (CLSI) broth microdilution methods per M7-A7 [2006]. Quality control ranges utilizing E. coli ATCC 25922, P. aeruginosa ATCC 27853 and S. aureus ATCC 29213, and interpretive criteria for comparator agents were as published in CLSI M100-S17 [2007]. Briefly, serial two-fold dilutions of the test compounds were prepared at 2× concentration in Mueller Hinton Broth. The compound dilutions were mixed in 96-well assay plates in a 1:1 ratio with bacterial inoculum. The inoculum was prepared by suspension of a colony from an agar plate that was prepared the previous day. Bacteria were suspended in sterile saline and added to each assay plate to obtain a final concentration of 5×10^5 CFU/mL. The plates were incubated at 35 C for 20 hours in ambient air.

[2] = test system: P. aeruginosa ATCC 27853 (APAE001); assay: MIC assay, CLSI broth microdilution, APAE001; assay type: cell-based; details: Pseudomonas aeruginosa; APAE001 is ATCC27853; Mueller Hinton Broth, 35 C, 20 hours
Protocol: as §1

| MIC [1] | MIC [2] | SMILES |
| --- | --- | --- |
| 1 to 16 µg/mL (≈ 1.4 to 22.4 µM) | ≤ 1 µg/mL | NC[C@@H](O)[C@H](O)C(=O)N[C@@H]1C[C@H](N)[C@@H](O[C@H]2O[C@H](CN)[C@@H](O)C[C@H]2N)[C@H](O[C@@H]2O[C@H](CO)[C@@H](O[C@H]3O[C@@H](CN)[C@@H](O)[C@H](O)[C@H]3N)[C@H]2O)[C@H]1O [1/11] |
| 1 to 16 µg/mL (≈ 1.4 to 22.4 µM) | ≤ 1 µg/mL | NC[C@@H]1O[C@H](O[C@H]2[C@@H](O)[C@H](O[C@@H]3[C@@H](O)[C@H](NC(=O)[C@@H](O)[C@@H](O)CN)C[C@H](N)[C@H]3O[C@H]3O[C@H](CN)[C@@H](O)C[C@H]3N)O[C@@H]2CO)[C@H](N)[C@@H](O)[C@@H]1O [2/3] |
| ≤ 1 µg/mL | ≤ 1 µg/mL | NC[C@@H](F)[C@H](O)C(=O)N[C@@H]1C[C@H](N)[C@@H](O[C@H]2O[C@H](CN)[C@@H](O)C[C@H]2N)[C@H](O[C@@H]2O[C@H](CO)[C@@H](O[C@H]3O[C@@H](CN)[C@@H](O)[C@H](O)[C@H]3N)[C@H]2O)[C@H]1O [3/3] |
| 1 to 16 µg/mL (≈ 1.36 to 21.7 µM) | ≤ 1 µg/mL | NC[C@@H]1O[C@H](O[C@H]2[C@@H](O)[C@H](O[C@@H]3[C@@H](O)[C@H](NC(=O)[C@@H](O)C(F)(F)CN)C[C@H](N)[C@H]3O[C@H]3O[C@H](CN)[C@@H](O)C[C@H]3N)O[C@@H]2CO)[C@H](N)[C@@H](O)[C@@H]1O [4/3] |
| 1 to 16 µg/mL (≈ 1.4 to 22.4 µM) | ≤ 1 µg/mL | NC[C@@H]1C[C@@H](O)[C@@H](N)[C@@H](O[C@H]2[C@H](O[C@@H]3O[C@H](CO)[C@@H](O[C@H]4O[C@@H](CN)[C@@H](O)[C@H](O)[C@H]4N)[C@H]3O)[C@@H](O)[C@H](NC(=O)[C@@H](O)[C@H](O)CN)C[C@@H]2N)O1 [5/12] |
| 1 to 16 µg/mL (≈ 1.4 to 22.4 µM) | ≤ 1 µg/mL | NC[C@@H]1C[C@@H](O)[C@@H](N)[C@@H](O[C@H]2[C@H](O[C@@H]3O[C@H](CO)[C@@H](O[C@H]4O[C@@H](CN)[C@@H](O)[C@H](O)[C@H]4N)[C@H]3O)[C@@H](O)[C@H](NC(=O)[C@@H](O)[C@@H](O)CN)C[C@@H]2N)O1 [6/3] |
| 1 to 16 µg/mL (≈ 1.39 to 22.3 µM) | ≤ 1 µg/mL | NC[C@@H]1C[C@@H](O)[C@@H](N)[C@@H](O[C@H]2[C@H](O[C@@H]3O[C@H](CO)[C@@H](O[C@H]4O[C@@H](CN)[C@@H](O)[C@H](O)[C@H]4N)[C@H]3O)[C@@H](O)[C@H](NC(=O)[C@@H](O)[C@H](F)CN)C[C@@H]2N)O1 [7/3] |
| 1 to 16 µg/mL (≈ 1.36 to 21.7 µM) | ≤ 1 µg/mL | NC[C@@H]1C[C@@H](O)[C@@H](N)[C@@H](O[C@H]2[C@H](O[C@@H]3O[C@H](CO)[C@@H](O[C@H]4O[C@@H](CN)[C@@H](O)[C@H](O)[C@H]4N)[C@H]3O)[C@@H](O)[C@H](NC(=O)[C@@H](O)C(F)(F)CN)C[C@@H]2N)O1 [8/3] |
